Literature values, collected in PMC4273976 (ACS chemical biology, 2014).

System: EphA4-dependent growth cone collapse
Details: 5 μM peptide, nasal retinal explants; cited from earlier work

KYLPYWPVLSSL
inhibition of ephrin-A5-induced growth cone collapse: blocked
